From US12281121B2, “N-containing heteroaryl derivative and pharmaceutical composition comprising same as active ingredient for prevention or treatment of cancer” (VORONOI Inc., priority 2019, dated 2025)

Key:
Experiment in all cases: ScanMAX Kinase analysis panel (DiscoverX)
Format in all cases: binding
[1] = target: T1, ABL1(H396P)-nonphosphorylated (Homo sapiens, UniProt P00519, H396P); details: read-out: adjusted percentage (% control)
T1 construct: purchased DiscoverX
Method: (§1) The following experiment was performed in order to evaluate the inhibitory activity of the compound according to the present invention against more enzymes. Specifically, for Examples 1 and 3 selected among the Example compounds of the present invention, the enzyme (kinase) selectivity was set to be measured by commissioning DiscoverX, and an experiment was conducted using a ScanMAX™ Kinase analysis panel. In this case, the concentration of the drug treated with the enzyme was set to 1 μM in DMSO, the adjusted percentage (% control) was determined in the same manner as in the following Equation 1, and the results are shown in the following Table 3. (Example compound−Positive control)/(Negative control−Positive control)×100 [Equation 1]
(§2) In addition, the enzyme selectivity of the present invention was determined to be active against the corresponding enzyme when the adjusted percentage was <35% (that is, less than 35%).

[2] = target: T2, ABL1(M351T)-phosphorylated (Homo sapiens, UniProt P00519, M351T); details: read-out: adjusted percentage (% control)
T2 construct: purchased DiscoverX
Method: as §1, §2

[3] = target: T3, ABL1(Q252H)-phosphorylated (Homo sapiens, UniProt P00519, Q252H); details: read-out: adjusted percentage (% control)
T3 construct: purchased DiscoverX
Method: as §1, §2

ABL1-phosphorylated = target: T4, ABL1-phosphorylated (Homo sapiens, UniProt P00519); details: read-out: adjusted percentage (% control)
T4 construct: purchased DiscoverX
Method: as §1, §2

AURKA = target: T5, AURKA (Homo sapiens, UniProt O14965); details: read-out: adjusted percentage (% control)
T5 construct: purchased DiscoverX
Method: as §1, §2

BLK = target: T6, BLK (Homo sapiens, UniProt P51451); details: read-out: adjusted percentage (% control)
T6 construct: purchased DiscoverX
Method: as §1, §2

DDR2 = target: T7, DDR2 (Homo sapiens, UniProt Q16832); details: read-out: adjusted percentage (% control)
T7 construct: purchased DiscoverX
Method: as §1, §2

EGFR(L858R, T790M) = target: T8, EGFR(L858R, T790M) (Homo sapiens, UniProt P00533, L858R/T790M); details: read-out: adjusted percentage (% control)
T8 construct: purchased DiscoverX
T8 sequence (P00533 25-1210 T790M/L858R): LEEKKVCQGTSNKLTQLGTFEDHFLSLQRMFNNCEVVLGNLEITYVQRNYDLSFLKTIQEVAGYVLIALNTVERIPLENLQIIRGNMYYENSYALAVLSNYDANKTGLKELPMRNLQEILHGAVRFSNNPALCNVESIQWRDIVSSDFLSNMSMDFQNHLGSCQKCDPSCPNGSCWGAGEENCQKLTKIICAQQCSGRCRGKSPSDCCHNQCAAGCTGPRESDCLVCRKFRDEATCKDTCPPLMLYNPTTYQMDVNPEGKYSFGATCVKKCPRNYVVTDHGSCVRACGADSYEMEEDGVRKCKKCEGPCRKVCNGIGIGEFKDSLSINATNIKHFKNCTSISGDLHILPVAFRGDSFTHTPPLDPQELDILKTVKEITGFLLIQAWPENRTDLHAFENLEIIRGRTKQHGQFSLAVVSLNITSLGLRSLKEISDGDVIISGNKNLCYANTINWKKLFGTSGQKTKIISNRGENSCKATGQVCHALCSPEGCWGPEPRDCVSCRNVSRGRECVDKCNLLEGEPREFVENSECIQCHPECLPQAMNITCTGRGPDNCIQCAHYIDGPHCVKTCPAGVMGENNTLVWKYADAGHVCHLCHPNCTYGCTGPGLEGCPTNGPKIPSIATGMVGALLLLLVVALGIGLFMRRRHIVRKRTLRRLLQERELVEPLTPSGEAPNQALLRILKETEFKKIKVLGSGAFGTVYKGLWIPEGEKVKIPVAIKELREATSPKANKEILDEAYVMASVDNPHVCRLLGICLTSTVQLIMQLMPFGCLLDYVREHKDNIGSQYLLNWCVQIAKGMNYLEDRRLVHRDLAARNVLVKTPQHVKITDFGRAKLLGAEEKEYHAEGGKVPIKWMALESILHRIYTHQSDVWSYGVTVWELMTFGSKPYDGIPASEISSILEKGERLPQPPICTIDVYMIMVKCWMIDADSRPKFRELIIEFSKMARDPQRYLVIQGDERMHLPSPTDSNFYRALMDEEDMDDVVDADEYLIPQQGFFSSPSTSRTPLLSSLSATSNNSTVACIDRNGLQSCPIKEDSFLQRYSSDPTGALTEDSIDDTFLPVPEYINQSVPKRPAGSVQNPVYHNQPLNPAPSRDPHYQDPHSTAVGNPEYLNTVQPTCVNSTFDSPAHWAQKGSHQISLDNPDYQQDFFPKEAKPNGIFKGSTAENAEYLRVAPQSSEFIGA
Method: as §1, §2

EGFR(T790M) = target: T9, EGFR(T790M) (Homo sapiens, UniProt P00533, T790M); details: read-out: adjusted percentage (% control)
T9 construct: purchased DiscoverX ScanMAX Kinase analysis panel
Method: as §1, §2

FGFR1 = target: T10, FGFR1 (Homo sapiens, UniProt P11362); details: read-out: adjusted percentage (% control)
T10 construct: purchased DiscoverX ScanMAX Kinase analysis panel
Method: as §1, §2

FLT3 = target: T11, FLT3 (Homo sapiens, UniProt P36888); details: read-out: adjusted percentage (% control)
T11 construct: purchased DiscoverX ScanMAX Kinase analysis panel
Method: as §1, §2

FLT3(D835H) = target: T12, FLT3(D835H) (Homo sapiens, UniProt P36888, D835H); details: read-out: adjusted percentage (% control)
T12 construct: purchased DiscoverX ScanMAX Kinase analysis panel
Method: as §1, §2

FLT3(D835Y) = target: T13, FLT3(D835Y) (Homo sapiens, UniProt P36888, D835Y); details: read-out: adjusted percentage (% control)
T13 construct: purchased DiscoverX ScanMAX Kinase analysis panel
Method: as §1, §2

FLT3(ITD, D835V) = details: 1 μM
Method: as §1, §2

FLT3(ITD, F691L) = details: 1 μM
Method: as §1, §2

FRK = target: T14, FRK (Homo sapiens, UniProt P42685); details: read-out: adjusted percentage (% control)
T14 construct: purchased DiscoverX ScanMAX Kinase analysis panel
T14 sequence (P42685 whole entry): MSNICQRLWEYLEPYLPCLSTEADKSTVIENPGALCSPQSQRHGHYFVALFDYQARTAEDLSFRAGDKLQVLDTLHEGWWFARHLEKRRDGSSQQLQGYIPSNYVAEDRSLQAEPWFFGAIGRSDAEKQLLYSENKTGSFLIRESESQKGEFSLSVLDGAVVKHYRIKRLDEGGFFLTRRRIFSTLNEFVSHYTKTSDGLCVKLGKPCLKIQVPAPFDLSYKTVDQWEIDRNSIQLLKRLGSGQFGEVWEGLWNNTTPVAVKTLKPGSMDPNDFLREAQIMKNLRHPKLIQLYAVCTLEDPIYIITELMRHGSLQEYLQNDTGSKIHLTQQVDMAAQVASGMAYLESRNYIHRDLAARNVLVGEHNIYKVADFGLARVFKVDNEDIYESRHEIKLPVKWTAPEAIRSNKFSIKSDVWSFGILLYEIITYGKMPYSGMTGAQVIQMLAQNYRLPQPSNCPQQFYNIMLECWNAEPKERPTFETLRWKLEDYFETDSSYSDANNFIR
Method: as §1, §2

GCN2(Kin.Dom.2, S808G) = target: T15, GCN2(Kin.Dom.2, S808G) (Homo sapiens, UniProt Q9P2K8, S808G); details: read-out: adjusted percentage (% control)
T15 construct: GCN2(Kin.Dom.2,S808G); purchased DiscoverX ScanMAX Kinase analysis panel
Method: as §1, §2

ICK = target: T16, ICK (Homo sapiens, UniProt Q9UPZ9); details: read-out: adjusted percentage (% control)
T16 construct: purchased DiscoverX ScanMAX Kinase analysis panel
T16 sequence (Q9UPZ9 whole entry): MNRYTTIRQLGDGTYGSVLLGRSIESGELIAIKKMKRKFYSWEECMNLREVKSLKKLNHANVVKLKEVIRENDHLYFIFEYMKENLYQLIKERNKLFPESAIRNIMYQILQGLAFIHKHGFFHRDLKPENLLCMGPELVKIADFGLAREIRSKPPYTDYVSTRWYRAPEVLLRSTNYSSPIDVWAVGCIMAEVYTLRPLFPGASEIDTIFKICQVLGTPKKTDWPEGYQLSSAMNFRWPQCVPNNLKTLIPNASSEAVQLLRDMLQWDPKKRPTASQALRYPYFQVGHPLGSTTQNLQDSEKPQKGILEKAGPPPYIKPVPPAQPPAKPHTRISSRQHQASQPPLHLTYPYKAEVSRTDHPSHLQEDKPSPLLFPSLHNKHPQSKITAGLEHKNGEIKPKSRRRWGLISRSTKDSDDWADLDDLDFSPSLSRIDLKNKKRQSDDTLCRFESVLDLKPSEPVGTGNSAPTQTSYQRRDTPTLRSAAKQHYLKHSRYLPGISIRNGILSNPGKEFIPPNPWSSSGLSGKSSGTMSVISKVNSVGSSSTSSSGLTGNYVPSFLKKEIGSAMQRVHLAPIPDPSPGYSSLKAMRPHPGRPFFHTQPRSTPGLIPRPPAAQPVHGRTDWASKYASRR
Method: as §1, §2

ITK = target: T17, ITK (Homo sapiens, UniProt Q08881); details: read-out: adjusted percentage (% control)
T17 construct: purchased DiscoverX ScanMAX Kinase analysis panel
Method: as §1, §2

[4] = target: T18, JAK1(JH1domain-catalytic) (Homo sapiens, UniProt P23458); details: read-out: adjusted percentage (% control)
T18 construct: JAK1(JH1domain-catalytic); purchased DiscoverX ScanMAX Kinase analysis panel
Method: as §1, §2

KIT(A829P) = target: T19, KIT(A829P) (Homo sapiens, UniProt P10721, A829P); details: read-out: adjusted percentage (% control)
T19 construct: purchased DiscoverX ScanMAX Kinase analysis panel
Method: as §1, §2

KIT(V559D) = target: T20, KIT(V559D) (Homo sapiens, UniProt P10721, V559D); details: read-out: adjusted percentage (% control)
T20 construct: purchased DiscoverX ScanMAX Kinase analysis panel
Method: as §1, §2

MAP3K2 = target: T21, MAP3K2 (Homo sapiens, UniProt Q9Y2U5); details: read-out: adjusted percentage (% control)
T21 construct: purchased DiscoverX ScanMAX Kinase analysis panel
T21 sequence (Q9Y2U5 whole entry): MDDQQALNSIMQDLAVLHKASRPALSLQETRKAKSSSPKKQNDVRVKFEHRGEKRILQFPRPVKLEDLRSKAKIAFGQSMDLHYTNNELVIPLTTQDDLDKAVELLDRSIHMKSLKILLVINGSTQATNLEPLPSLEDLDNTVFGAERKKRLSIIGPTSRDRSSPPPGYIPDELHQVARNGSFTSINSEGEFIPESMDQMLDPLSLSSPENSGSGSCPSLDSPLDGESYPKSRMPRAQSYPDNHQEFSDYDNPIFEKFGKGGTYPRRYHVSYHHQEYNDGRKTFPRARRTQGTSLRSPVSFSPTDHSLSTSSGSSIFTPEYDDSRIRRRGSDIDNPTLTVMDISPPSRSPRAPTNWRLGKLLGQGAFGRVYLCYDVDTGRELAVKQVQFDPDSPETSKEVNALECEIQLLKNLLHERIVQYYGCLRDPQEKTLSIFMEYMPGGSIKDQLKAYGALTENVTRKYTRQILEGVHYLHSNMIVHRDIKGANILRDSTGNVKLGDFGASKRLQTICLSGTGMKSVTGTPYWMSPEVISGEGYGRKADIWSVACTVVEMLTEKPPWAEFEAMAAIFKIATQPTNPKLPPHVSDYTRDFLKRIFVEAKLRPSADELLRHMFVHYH
Method: as §1, §2

MEK2 = target: T22, MEK2 (Homo sapiens, UniProt P36507); details: read-out: adjusted percentage (% control)
T22 construct: purchased DiscoverX ScanMAX Kinase analysis panel
Method: as §1, §2

MEK3 = target: T23, MEK3 (Homo sapiens, UniProt P46734); details: read-out: adjusted percentage (% control)
T23 construct: purchased DiscoverX ScanMAX Kinase analysis panel
Method: as §1, §2

MEK5 = target: T24, MEK5 (Homo sapiens, UniProt Q13163); details: read-out: adjusted percentage (% control)
T24 construct: purchased DiscoverX ScanMAX Kinase analysis panel
Method: as §1, §2

MST1 = target: T25, MST1 (Homo sapiens, UniProt Q13043); details: read-out: adjusted percentage (% control)
T25 construct: purchased DiscoverX ScanMAX Kinase analysis panel
Method: as §1, §2

PLK4 = target: T26, PLK4 (Homo sapiens, UniProt O00444); details: read-out: adjusted percentage (% control)
T26 construct: purchased DiscoverX ScanMAX Kinase analysis panel
Method: as §1, §2

RET(V804L) = target: T27, RET(V804L) (Homo sapiens, UniProt P07949, V804L); details: read-out: adjusted percentage (% control)
T27 construct: purchased DiscoverX ScanMAX Kinase analysis panel
Method: as §1, §2

RET(V804M) = target: T28, RET(V804M) (Homo sapiens, UniProt P07949, V804M); details: read-out: adjusted percentage (% control)
T28 construct: purchased DiscoverX ScanMAX Kinase analysis panel
Method: as §1, §2

RIOK3 = target: T29, RIOK3 (Homo sapiens, UniProt O14730); details: read-out: adjusted percentage (% control)
T29 construct: purchased DiscoverX ScanMAX Kinase analysis panel
Method: as §1, §2

SNARK = target: T30, SNARK (Homo sapiens, UniProt Q9H093); details: read-out: adjusted percentage (% control)
T30 construct: purchased DiscoverX ScanMAX Kinase analysis panel
Method: as §1, §2

TRKA = target: T31, TRKA (Homo sapiens, UniProt P04629); details: read-out: adjusted percentage (% control)
T31 construct: purchased DiscoverX ScanMAX Kinase analysis panel
Method: as §1, §2

TRKC = target: T32, TRKC (Homo sapiens, UniProt Q16288); details: read-out: adjusted percentage (% control)
T32 construct: purchased DiscoverX ScanMAX Kinase analysis panel
T32 sequence (Q16288 32-839): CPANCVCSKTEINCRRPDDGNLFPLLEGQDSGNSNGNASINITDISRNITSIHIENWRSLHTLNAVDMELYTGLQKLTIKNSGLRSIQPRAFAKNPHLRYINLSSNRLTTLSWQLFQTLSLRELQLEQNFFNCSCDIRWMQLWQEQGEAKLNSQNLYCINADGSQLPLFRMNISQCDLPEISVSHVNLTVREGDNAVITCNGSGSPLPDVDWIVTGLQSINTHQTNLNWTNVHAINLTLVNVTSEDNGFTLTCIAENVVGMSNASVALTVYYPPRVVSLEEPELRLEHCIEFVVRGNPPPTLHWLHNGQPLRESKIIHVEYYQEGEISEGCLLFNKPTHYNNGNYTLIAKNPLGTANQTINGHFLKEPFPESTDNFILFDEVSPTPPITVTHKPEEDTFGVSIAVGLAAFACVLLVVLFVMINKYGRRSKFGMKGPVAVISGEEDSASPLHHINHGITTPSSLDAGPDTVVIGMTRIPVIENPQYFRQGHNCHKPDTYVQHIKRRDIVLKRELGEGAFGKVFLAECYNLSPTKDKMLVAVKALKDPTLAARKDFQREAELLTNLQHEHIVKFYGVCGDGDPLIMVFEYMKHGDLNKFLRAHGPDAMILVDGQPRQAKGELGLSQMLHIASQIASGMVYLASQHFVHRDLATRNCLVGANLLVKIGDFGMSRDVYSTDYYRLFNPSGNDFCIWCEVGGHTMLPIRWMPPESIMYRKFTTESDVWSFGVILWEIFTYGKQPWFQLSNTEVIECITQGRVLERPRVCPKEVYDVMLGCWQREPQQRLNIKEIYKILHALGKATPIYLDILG
Method: as §1, §2

YSK4 = target: T33, YSK4 (Homo sapiens, UniProt Q56UN5); details: read-out: adjusted percentage (% control)
T33 construct: purchased DiscoverX ScanMAX Kinase analysis panel
T33 sequence (Q56UN5 whole entry): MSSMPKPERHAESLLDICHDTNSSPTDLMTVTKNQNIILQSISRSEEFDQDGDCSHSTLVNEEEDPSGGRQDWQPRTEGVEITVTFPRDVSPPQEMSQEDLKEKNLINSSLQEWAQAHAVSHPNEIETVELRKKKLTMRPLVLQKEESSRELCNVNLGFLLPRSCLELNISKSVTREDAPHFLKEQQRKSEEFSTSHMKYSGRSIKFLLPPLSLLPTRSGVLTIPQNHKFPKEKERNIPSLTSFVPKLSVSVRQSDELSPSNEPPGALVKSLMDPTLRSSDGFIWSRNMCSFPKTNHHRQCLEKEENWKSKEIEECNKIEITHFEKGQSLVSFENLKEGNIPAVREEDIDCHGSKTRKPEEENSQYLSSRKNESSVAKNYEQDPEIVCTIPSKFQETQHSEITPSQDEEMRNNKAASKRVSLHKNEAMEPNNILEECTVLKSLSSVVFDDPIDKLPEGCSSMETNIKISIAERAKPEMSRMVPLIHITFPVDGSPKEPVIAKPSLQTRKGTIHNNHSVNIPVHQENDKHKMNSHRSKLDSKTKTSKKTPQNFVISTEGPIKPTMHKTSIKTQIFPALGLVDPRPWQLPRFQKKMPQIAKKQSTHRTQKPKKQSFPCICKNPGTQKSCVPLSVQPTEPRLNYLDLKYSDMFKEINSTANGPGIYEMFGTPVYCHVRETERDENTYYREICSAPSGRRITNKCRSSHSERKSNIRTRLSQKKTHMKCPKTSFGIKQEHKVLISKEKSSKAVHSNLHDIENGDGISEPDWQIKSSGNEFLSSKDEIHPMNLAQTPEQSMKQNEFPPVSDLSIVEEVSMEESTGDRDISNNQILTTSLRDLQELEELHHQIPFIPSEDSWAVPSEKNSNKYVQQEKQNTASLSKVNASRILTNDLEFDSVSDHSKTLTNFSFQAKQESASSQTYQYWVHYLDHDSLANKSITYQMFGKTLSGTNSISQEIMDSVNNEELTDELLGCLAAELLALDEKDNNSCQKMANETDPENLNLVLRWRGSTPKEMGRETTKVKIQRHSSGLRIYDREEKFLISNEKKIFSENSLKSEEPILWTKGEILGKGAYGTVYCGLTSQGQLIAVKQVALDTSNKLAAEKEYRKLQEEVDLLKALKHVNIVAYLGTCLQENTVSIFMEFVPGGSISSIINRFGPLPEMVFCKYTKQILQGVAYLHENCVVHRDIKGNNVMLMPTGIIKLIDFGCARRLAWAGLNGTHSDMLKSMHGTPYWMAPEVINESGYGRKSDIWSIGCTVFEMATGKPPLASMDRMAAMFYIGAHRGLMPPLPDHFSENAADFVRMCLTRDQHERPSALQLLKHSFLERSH
Method: as §1, §2

COc1ccc(CN2C3CC2CN(c2ccc(-c4nc(Nc5cc(C)[nH]n5)c5ccccc5n4)cn2)C3)cn1 [Example 3, 2-(6-(6-((6-methoxypyridin-3-yl)methyl)-3,6-diazabicyclo [3.1.1]heptan-3-yl)pyridin-3-yl)-N-(5-methyl-1H-pyrazol-3-yl)quinazolin-4-amine]
remaining binding at 1 µM [1]: 2.5%
remaining binding at 1 µM [2]: 15%
remaining binding at 1 µM [3]: 17%
remaining binding at 1 µM (ABL1-phosphorylated): 15%
remaining binding at 1 µM (AURKA): 2.2%
remaining binding at 1 µM (BLK): 0.05%
remaining binding at 1 µM (DDR2): 30%
remaining binding at 1 µM (EGFR(L858R, T790M)): 6.6%
remaining binding at 1 µM (EGFR(T790M)): 16%
remaining binding at 1 µM (FGFR1): 4.3%
remaining binding at 1 µM (FLT3): 0.55%
remaining binding at 1 µM (FLT3(D835H)): 2.7%
remaining binding at 1 µM (FLT3(D835Y)): 0.55%
adjusted percentage (% control) (FLT3(ITD, D835V)): 0%
adjusted percentage (% control) (FLT3(ITD, F691L)): 8.8%
remaining binding at 1 µM (FRK): 34%
remaining binding at 1 µM (GCN2(Kin.Dom.2, S808G)): 0.2%
remaining binding at 1 µM (ICK): 28%
remaining binding at 1 µM (ITK): 1.6%
remaining binding at 1 µM [4]: 9.7%
remaining binding at 1 µM (KIT(A829P)): 11%
remaining binding at 1 µM (KIT(V559D)): 4.2%
remaining binding at 1 µM (MAP3K2): 7.4%
remaining binding at 1 µM (MEK2): 17%
remaining binding at 1 µM (MEK3): 4.9%
remaining binding at 1 µM (MEK5): 2.2%
remaining binding at 1 µM (MST1): 30%
remaining binding at 1 µM (PLK4): 1.2%
remaining binding at 1 µM (RET(V804L)): 0.4%
remaining binding at 1 µM (RET(V804M)): 0%
remaining binding at 1 µM (RIOK3): 30%
remaining binding at 1 µM (SNARK): 17%
remaining binding at 1 µM (TRKA): 0%
remaining binding at 1 µM (TRKC): 1%
remaining binding at 1 µM (YSK4): 5%

COc1ccc(CN2C3CC2CN(c2ccc(-c4nc(Nc5cc(C)[nH]n5)c5occc5n4)cn2)C3)cn1 [Example 1, 2-(6-(6-((6-methoxypyridin-3-yl)methyl)-3,6-diazabicyclo[3.1.1]heptan-3-yl)pyridin-3-yl)-N-(5-methyl-1H-pyrazol-3-yl)furo[3,2-d]pyrimidin-4-amine]
remaining binding at 1 µM [1]: 10%
remaining binding at 1 µM [2]: 16%
remaining binding at 1 µM [3]: 15%
remaining binding at 1 µM (ABL1-phosphorylated): 30%
remaining binding at 1 µM (AURKA): 4.1%
remaining binding at 1 µM (BLK): 1.4%
remaining binding at 1 µM (DDR2): 16%
remaining binding at 1 µM (EGFR(L858R, T790M)): 6.9%
remaining binding at 1 µM (EGFR(T790M)): 8.1%
remaining binding at 1 µM (FGFR1): 11%
remaining binding at 1 µM (FLT3): 1.2%
remaining binding at 1 µM (FLT3(D835H)): 6.7%
remaining binding at 1 µM (FLT3(D835Y)): 1.5%
adjusted percentage (% control) (FLT3(ITD, D835V)): 0%
adjusted percentage (% control) (FLT3(ITD, F691L)): 1.4%
remaining binding at 1 µM (FRK): 18%
remaining binding at 1 µM (GCN2(Kin.Dom.2, S808G)): 8%
remaining binding at 1 µM (ICK): 33%
remaining binding at 1 µM (ITK): 2%
remaining binding at 1 µM [4]: 15%
remaining binding at 1 µM (KIT(A829P)): 2.8%
remaining binding at 1 µM (KIT(V559D)): 34%
remaining binding at 1 µM (MAP3K2): 27%
remaining binding at 1 µM (MEK2): 24%
remaining binding at 1 µM (MEK3): 27%
remaining binding at 1 µM (MEK5): 9.9%
remaining binding at 1 µM (MST1): 25%
remaining binding at 1 µM (PLK4): 1.3%
remaining binding at 1 µM (RET(V804L)): 1.1%
remaining binding at 1 µM (RET(V804M)): 0%
remaining binding at 1 µM (RIOK3): 13%
remaining binding at 1 µM (SNARK): 22%
remaining binding at 1 µM (TRKA): 0%
remaining binding at 1 µM (TRKC): 0.45%
remaining binding at 1 µM (YSK4): 6.2%
